Assays:
[1] = tested on: Tyrosine-protein kinase ABL1 (Homo sapiens), P00519 [Y253F]; conditions: Compound concentration 100.0 nM
[2] = molecular target: Activin receptor type-1-like (Homo sapiens) (UniProt P37023); conditions: Compound concentration 100.0 nM
[3] = molecular target: Atypical kinase COQ8B, mitochondrial (Homo sapiens) (UniProt Q96D53); conditions: Compound concentration 100.0 nM
[4] = molecular target: Calcium/calmodulin-dependent protein kinase type II subunit alpha (Homo sapiens) (UniProt Q9UQM7); conditions: Compound concentration 100.0 nM
[5] = molecular target: Cyclin-dependent kinase 8 (Homo sapiens) (UniProt P49336); conditions: Compound concentration 100.0 nM
[6] = molecular target: T1, Ephrin type-B receptor 4 (Homo sapiens) (UniProt P54760); conditions: Compound concentration 100.0 nM
T1 sequence (whole entry): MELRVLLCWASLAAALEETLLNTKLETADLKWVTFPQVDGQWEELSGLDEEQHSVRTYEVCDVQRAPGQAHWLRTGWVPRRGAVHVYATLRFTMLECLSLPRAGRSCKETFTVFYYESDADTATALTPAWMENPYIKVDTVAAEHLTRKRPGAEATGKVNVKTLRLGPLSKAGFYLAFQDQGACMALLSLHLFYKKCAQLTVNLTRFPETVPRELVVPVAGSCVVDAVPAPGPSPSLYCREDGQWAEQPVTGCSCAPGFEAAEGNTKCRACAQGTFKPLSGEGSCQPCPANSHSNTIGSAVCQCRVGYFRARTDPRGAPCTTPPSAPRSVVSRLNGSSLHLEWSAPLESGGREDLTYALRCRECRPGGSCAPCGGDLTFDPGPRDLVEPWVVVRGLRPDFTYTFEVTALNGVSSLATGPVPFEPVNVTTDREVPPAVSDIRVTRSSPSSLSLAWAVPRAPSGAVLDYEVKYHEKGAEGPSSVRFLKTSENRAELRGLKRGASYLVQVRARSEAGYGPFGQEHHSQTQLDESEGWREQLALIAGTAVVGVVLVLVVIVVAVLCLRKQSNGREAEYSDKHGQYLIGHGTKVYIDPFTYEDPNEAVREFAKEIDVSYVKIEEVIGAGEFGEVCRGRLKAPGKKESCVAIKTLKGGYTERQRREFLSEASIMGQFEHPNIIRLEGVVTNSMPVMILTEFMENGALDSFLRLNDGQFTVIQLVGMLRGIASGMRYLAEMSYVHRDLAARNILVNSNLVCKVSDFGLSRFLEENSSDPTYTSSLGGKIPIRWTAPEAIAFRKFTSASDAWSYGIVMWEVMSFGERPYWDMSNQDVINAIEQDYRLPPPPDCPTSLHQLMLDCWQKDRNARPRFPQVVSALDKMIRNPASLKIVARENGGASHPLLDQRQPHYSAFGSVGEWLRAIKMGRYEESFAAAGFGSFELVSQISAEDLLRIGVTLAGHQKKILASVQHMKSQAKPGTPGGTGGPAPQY

[7] = molecular target: Rhodopsin kinase GRK1 (Homo sapiens) (UniProt Q15835); conditions: Compound concentration 100.0 nM
[8] = molecular target: Insulin receptor (Homo sapiens) (UniProt P06213); conditions: Compound concentration 100.0 nM
[9] = molecular target: T2, MAP kinase-activated protein kinase 5 (Homo sapiens) (UniProt Q8IW41); conditions: Compound concentration 100.0 nM
T2 sequence (whole entry): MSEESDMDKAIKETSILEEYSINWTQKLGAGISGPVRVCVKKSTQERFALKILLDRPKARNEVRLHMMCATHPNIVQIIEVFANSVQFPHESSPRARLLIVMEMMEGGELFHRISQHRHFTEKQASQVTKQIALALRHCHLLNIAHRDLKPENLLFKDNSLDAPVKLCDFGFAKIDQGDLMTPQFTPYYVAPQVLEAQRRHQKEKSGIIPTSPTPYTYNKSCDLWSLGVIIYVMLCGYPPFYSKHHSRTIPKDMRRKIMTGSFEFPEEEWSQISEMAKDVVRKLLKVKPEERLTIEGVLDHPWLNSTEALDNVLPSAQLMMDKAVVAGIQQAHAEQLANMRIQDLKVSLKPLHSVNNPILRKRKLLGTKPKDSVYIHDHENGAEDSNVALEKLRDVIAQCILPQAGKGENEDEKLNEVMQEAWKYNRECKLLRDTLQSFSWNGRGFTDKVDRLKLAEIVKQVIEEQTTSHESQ

[10] = molecular target: Dual specificity mitogen-activated protein kinase kinase 2 (Homo sapiens) (UniProt P36507); conditions: Compound concentration 100.0 nM
[11] = molecular target: Myosin-IIIa (Homo sapiens) (UniProt Q8NEV4); conditions: Compound concentration 100.0 nM
[12] = molecular target: Mitogen-activated protein kinase 14 (Homo sapiens) (UniProt Q16539); conditions: Compound concentration 100.0 nM
[13] = molecular target: Phosphatidylinositol 4-phosphate 5-kinase type-1 gamma (Homo sapiens) (UniProt O60331); conditions: Compound concentration 100.0 nM
[14] = molecular target: Membrane-associated tyrosine- and threonine-specific cdc2-inhibitory kinase (Homo sapiens) (UniProt Q99640); conditions: Compound concentration 100.0 nM
[15] = molecular target: Serine/threonine-protein kinase N2 (Homo sapiens) (UniProt Q16513); conditions: Compound concentration 100.0 nM
[16] = molecular target: Proto-oncogene tyrosine-protein kinase receptor Ret (Homo sapiens) (UniProt P07949); conditions: Compound concentration 100.0 nM
[17] = molecular target: Ribosomal protein S6 kinase alpha-4 (Homo sapiens) (UniProt O75676); conditions: Compound concentration 100.0 nM
[18] = molecular target: Uncharacterized serine/threonine-protein kinase SBK3 (Homo sapiens) (UniProt P0C264); conditions: Compound concentration 100.0 nM
[19] = molecular target: Serine/threonine-protein kinase Sgk2 (Homo sapiens) (UniProt Q9HBY8); conditions: Compound concentration 100.0 nM
[20] = molecular target: TRAF2 and NCK-interacting protein kinase (Homo sapiens) (UniProt Q9UKE5); conditions: Compound concentration 100.0 nM
[21] = molecular target: BDNF/NT-3 growth factors receptor (Homo sapiens) (UniProt Q16620); conditions: Compound concentration 100.0 nM
[22] = molecular target: Testis-specific serine/threonine-protein kinase 3 (Homo sapiens) (UniProt Q96PN8); conditions: Compound concentration 100.0 nM
[23] = molecular target: 5-hydroxytryptamine receptor 1B (Homo sapiens) (UniProt P28222); conditions: Compound concentration 10.0 uM

Sequence of Activin receptor type-1-like (Homo sapiens) (P37023 whole entry): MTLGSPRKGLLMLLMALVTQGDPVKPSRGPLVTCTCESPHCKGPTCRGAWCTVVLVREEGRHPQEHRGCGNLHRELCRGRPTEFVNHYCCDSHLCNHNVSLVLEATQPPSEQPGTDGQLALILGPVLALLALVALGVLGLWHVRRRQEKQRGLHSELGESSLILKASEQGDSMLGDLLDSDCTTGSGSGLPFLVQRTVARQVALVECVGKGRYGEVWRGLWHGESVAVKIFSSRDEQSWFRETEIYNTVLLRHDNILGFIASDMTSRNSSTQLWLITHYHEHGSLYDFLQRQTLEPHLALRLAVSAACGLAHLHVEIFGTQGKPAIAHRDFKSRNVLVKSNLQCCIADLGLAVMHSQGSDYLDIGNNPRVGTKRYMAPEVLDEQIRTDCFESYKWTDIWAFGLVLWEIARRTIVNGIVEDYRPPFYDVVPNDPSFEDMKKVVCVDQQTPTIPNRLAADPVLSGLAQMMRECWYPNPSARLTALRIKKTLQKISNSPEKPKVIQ
Sequence of Membrane-associated tyrosine- and threonine-specific cdc2-inhibitory kinase (Homo sapiens) (Q99640 whole entry): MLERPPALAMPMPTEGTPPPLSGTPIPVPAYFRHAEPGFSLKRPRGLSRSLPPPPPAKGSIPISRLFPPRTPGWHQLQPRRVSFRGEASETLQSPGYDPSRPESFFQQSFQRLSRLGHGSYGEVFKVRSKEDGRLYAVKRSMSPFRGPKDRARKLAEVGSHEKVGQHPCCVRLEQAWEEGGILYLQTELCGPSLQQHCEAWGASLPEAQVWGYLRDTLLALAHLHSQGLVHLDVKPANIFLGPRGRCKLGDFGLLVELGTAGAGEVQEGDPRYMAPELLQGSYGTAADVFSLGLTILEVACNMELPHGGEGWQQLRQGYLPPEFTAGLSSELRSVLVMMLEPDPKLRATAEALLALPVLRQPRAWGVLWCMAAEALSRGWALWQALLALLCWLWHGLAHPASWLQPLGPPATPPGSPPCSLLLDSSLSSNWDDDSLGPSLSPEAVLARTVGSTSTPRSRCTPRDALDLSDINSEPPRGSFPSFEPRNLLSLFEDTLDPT
Sequence of TRAF2 and NCK-interacting protein kinase (Homo sapiens) (Q9UKE5 whole entry, looked up): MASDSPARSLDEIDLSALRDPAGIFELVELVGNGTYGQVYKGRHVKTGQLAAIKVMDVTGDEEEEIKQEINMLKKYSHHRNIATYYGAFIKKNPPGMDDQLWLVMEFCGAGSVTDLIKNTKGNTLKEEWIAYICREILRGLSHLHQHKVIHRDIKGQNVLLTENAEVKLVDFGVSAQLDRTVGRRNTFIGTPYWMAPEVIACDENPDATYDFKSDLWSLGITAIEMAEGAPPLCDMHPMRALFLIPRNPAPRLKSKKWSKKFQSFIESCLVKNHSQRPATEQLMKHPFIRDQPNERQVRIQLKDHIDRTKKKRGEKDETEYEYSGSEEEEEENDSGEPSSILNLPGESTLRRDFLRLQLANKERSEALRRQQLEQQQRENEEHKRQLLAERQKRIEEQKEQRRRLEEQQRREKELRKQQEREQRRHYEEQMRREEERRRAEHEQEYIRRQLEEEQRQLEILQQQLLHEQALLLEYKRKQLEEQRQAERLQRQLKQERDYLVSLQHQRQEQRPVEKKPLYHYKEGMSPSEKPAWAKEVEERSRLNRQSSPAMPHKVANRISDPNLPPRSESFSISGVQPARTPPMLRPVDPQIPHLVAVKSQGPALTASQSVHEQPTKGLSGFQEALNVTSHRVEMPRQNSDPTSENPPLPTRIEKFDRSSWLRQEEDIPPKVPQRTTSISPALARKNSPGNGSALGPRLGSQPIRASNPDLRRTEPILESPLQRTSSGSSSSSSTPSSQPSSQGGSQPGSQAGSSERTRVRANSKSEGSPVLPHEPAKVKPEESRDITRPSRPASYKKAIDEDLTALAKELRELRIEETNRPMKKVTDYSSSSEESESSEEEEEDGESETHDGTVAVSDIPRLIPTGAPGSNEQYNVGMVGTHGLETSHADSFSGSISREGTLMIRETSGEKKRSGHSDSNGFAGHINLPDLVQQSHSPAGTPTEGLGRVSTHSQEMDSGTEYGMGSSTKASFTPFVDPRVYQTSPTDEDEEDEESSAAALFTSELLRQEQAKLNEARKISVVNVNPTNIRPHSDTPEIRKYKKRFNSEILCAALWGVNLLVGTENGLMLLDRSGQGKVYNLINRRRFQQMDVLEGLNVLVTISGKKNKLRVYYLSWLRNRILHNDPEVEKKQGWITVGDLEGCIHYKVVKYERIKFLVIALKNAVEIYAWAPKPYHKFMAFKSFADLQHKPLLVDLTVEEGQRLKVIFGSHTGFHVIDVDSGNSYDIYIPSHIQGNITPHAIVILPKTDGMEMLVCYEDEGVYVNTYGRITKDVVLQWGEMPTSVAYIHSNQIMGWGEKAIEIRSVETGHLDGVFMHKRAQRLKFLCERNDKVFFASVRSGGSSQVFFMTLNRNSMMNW
Sequence of Rhodopsin kinase GRK1 (Homo sapiens) (Q15835 whole entry): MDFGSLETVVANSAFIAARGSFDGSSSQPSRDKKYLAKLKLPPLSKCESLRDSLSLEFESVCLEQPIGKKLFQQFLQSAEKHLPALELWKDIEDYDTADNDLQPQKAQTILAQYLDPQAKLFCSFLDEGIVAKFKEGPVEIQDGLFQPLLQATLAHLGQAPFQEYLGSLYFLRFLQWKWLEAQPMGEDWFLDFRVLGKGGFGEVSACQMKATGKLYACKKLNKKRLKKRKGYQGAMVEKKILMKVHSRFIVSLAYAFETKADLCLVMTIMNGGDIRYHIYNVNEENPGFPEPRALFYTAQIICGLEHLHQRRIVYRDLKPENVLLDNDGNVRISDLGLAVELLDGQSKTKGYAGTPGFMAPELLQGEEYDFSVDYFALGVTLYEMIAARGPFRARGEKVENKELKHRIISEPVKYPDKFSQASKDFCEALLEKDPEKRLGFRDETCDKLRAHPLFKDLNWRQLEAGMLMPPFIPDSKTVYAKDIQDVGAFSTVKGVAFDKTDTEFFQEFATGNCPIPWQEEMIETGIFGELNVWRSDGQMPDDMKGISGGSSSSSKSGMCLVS
Sequence of Serine/threonine-protein kinase N2 (Homo sapiens) (Q16513 whole entry, looked up): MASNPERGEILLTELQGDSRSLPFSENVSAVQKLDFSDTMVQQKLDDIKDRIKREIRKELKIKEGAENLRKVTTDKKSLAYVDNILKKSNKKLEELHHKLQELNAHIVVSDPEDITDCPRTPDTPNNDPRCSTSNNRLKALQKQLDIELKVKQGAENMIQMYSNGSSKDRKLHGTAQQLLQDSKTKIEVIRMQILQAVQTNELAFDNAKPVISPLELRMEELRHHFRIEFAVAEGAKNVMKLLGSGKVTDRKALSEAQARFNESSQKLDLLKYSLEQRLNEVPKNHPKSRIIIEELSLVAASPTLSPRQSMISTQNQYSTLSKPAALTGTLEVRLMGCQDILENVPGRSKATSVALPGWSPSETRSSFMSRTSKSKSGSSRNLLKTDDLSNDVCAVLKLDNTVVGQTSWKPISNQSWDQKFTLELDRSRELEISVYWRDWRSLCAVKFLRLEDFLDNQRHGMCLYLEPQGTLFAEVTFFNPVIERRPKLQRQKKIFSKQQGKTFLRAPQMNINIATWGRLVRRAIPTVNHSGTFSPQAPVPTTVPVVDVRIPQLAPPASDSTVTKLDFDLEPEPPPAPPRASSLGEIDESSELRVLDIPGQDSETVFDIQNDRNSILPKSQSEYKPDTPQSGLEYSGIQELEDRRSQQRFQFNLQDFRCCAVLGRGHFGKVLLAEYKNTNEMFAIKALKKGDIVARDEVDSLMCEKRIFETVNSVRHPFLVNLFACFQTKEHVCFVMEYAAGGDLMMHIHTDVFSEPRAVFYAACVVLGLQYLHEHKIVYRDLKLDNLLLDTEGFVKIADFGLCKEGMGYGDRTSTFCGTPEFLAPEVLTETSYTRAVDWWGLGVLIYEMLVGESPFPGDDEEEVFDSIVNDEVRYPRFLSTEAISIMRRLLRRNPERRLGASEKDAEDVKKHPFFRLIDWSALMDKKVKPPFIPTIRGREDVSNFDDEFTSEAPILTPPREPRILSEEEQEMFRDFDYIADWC
Sequence of Mitogen-activated protein kinase 14 (Homo sapiens) (Q16539 whole entry): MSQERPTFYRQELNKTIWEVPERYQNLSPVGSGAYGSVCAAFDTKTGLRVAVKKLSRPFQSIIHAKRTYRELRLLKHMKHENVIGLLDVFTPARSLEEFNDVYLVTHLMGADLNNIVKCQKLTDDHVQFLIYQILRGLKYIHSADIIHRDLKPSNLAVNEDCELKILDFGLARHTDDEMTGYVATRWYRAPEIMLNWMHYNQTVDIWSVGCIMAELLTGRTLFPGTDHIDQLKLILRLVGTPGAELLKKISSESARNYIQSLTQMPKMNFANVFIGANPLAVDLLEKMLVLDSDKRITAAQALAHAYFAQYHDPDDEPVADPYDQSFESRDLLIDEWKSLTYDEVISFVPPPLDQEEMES
Sequence of BDNF/NT-3 growth factors receptor (Homo sapiens) (Q16620 32-822 limits assumed): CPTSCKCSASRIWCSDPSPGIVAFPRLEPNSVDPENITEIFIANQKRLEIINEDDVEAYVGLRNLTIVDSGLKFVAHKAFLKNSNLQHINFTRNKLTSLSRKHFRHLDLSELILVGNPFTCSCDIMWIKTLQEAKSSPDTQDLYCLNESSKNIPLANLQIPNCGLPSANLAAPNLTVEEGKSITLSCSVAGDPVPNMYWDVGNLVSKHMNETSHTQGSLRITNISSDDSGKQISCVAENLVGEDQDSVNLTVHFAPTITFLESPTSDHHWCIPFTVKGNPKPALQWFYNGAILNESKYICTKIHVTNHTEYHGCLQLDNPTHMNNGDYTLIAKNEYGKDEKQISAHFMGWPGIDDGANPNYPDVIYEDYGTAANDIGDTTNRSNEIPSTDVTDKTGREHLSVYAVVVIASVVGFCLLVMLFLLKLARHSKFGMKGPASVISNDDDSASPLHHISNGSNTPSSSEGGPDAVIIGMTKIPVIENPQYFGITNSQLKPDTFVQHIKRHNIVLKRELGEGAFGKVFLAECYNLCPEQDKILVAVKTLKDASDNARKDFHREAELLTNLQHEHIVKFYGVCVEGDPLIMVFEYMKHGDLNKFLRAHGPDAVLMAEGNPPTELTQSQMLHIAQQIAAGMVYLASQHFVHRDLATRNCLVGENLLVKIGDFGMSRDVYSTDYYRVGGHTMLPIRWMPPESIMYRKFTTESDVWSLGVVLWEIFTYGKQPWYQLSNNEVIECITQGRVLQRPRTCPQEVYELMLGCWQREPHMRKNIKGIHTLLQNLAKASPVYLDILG

Cn1cc(Cl)c2c(Oc3c(F)cc(Nc4cc(Cl)nc(N)n4)cc3F)ccnc21 [BAY-4900]
inactive: residual activity [1] 95% | residual activity [2] 93% | residual activity [3] 89% | residual activity [4] 82% | residual activity [5] 97% | residual activity [6] 100% | residual activity [7] 92% | residual activity [8] 90% | residual activity [9] 100% | residual activity [10] 100% | residual activity [11] 100% | residual activity [12] 100% | residual activity [13] 93% | residual activity [14] 100% | residual activity [15] 75% | residual activity [16] 99% | residual activity [17] 87% | residual activity [18] 65% | residual activity [19] 86% | residual activity [20] 96% | residual activity [21] 96% | residual activity [22] 100% | inhibition [23] 5.3%

Cc1c[nH]c2nccc(Oc3c(F)cc(Nc4cc(Cl)nc(N)n4)cc3F)c12 [BAY-549]
inactive: residual activity [1] 81% | residual activity [2] 100% | residual activity [3] 88% | residual activity [4] 70% | residual activity [5] 69% | residual activity [6] 100% | residual activity [7] 82% | residual activity [8] 80% | residual activity [9] 81% | residual activity [10] 91% | residual activity [11] 95% | residual activity [12] 100% | residual activity [13] 78% | residual activity [14] 98% | residual activity [15] 100% | residual activity [16] 97% | residual activity [17] 100% | residual activity [18] 87% | residual activity [19] 69% | residual activity [20] 100% | residual activity [21] 94% | residual activity [22] 100% | inhibition [23] -5.28%
